From paper PMC9854774, “Monocarbonyl Curcumin Analogues as Potent Inhibitors against Human Glutathione Transferase P1-1” (Antioxidants, 2022)
“Also recorded” adds a separate entry of the source. Like-named read-outs stand apart in the source and are kept apart here.

Tests used:
hGSTP1-1 [1] = biological target: T1, hGSTP1-1 (Homo sapiens, UniProt P09211); experiment: hGSTP1-1 enzyme activity/inhibition assay (CDNB-GSH conjugation, 340 nm); format: biochemical; settings: recombinant hGSTP1-1, 25 °C; for Enzyme Inhibition (%) / inhibition at 100 µM: compound at final concentration of 100 μM; for IC50: CDNB/GSH assay, read-out: IC50 against hGSTP1-1
T1 construct: made in house; host or cells: E. coli BL21 (DE3)
Procedure: Determination of hGSTP1-1 activity was performed by monitoring the formation of the conjugate between CDNB and GSH and measuring the absorption at λ = 340 nm (ε = 9600 L·mol^−1·cm^−1) at 25 °C for 120 s, as described previously. One unit of enzyme activity is defined as the amount of enzyme that produces 1.0 μmol of product per minute under the assay conditions. Curcuminoids and monocarbonyl curcumin analogues were dissolved in DMSO (100 μΜ) and added to the assay mixture (the volume of DMSO was maintained at 2% v/v final concentration). The mixture was incubated at 25 °C for 1 min, prior to adding the enzyme sample. Initial velocities were determined in triplicates and were corrected for spontaneous reaction rates, when necessary. […] The IC50 values were determined from a graph of the remaining GST activity (%) against inhibitor concentration.
(§1) The computer program GraphPad Prism version 8 (GraphPad Prism Software, Inc., San Diego, CA, USA) was used for producing kinetic graphs and determining apparent kinetic parameters/constants and IC50 values.

hGSTP1-1 [2] = biological target: T1, hGSTP1-1; parameters: method as in PMID 9463521, PMID 17046132; settings: pH 7.4; presumably covalent binding to Cys-47; cited from earlier work
hGSTP1-1 [3] = biological target: T1, hGSTP1-1; experiment: Circular dichroism study of enzyme conformation; settings: 5 μΜ inhibitor; 0.1 mg/mL hGSTP1-1, 2.5 mM GSH (± 1 mM CDNB), pH 6.5
Procedure: CD studies were performed using a JASCO J-715 spectropolarimeter (Jasco Co., Tokyo, Japan) equipped with Peltier temperature controller (Jasco Co., Tokyo, Japan), at 25 °C and a wavelength range of 190–400 nm using a 1-mm-path length quartz cuvette. Each CD spectrum is the average of three scans at 200 nm·min^−1 and a resolution of 0.5 nm. The CD solutions were prepared by mixing the appropriate volumes of stock solutions to give final concentrations of 0.1 mg/mL of hGSTP1-1, 2.5 mM of GSH, 1 mM of CDNB, and 5 μΜ of inhibitor in potassium phosphate buffer (100 mM, pH 6.5) at room temperature, while CD spectra of plain solutions of GSH, CDNB, DM96, and DM62 at the same concentrations were also run as controls (see supporting information). The analysis of the CD data was performed using the OriginPro 9 program and the content of the secondary structure was calculated through the CDNN Circular Dichroism Spectroscopy Deconvolution software.

DU-145 cells = experiment: In vitro cytotoxicity, MTT colorimetric assay; format: cell-based, human; settings: read-out: IC50 against DU-145
Procedure: DU-145 cells were grown in Dulbecco’s modified eagle medium (DMEM) growth medium of pH 7.4, supplemented with 10% fetal bovine serum (FBS), penicillin (100 U·mL^−1), glutamine (2 mM), and streptomycin (100 μg·mL^−1). Cell cultures were maintained in flasks and were grown at 37 °C in a humidified atmosphere of 5% CO2 in air. […] The subcultivation ratio was 1:2 to 1:5.
Cells were seeded in 96-well plates (8 × 10^3 cells/well in 100 μL culture medium) and grown overnight at 37 °C in a 5% CO2 incubator. Exponentially growing cells were incubated for 48 h with various concentrations ranging between 10^−3–10^−[…] of each derivative, and the final DMSO concentration never exceeded 0.2%. The medium was then removed and replaced with 100 μL of MTT solution (1 mg·mL^−1). After a 4 h incubation, the solution was aspirated, formazan crystals were solubilized in 100 μL of DMSO, and absorbance was recorded at 540 nm on a Tecan well plate reader. The results were expressed as % cell viability = (mean optical density (OD) of treated cells/mean OD of untreated cells) × 100.

hGSTP1-1 [4] = biological target: T1, hGSTP1-1; experiment: Kinetic inhibition analysis of hGSTP1-1 (Lineweaver-Burk); format: biochemical; settings: for Experimental Binding Free Energy ΔGexp: calculated from Ki; for Experimental Binding Free Energy ΔG′exp: calculated from Ki΄; for Type of Inhibition: pH 6.5, 25 °C; for Inhibition Constant Ki΄: binding to enzyme-substrate complex; for Ki: binding to free enzyme, read-out: Inhibition Constant Ki
Procedure: as §1
Initial velocities (25 °C) for the hGSTP1-1-catalyzed reaction with CDNB as a variable substrate were determined in reaction mixtures (1 mL total volume) containing potassium phosphate buffer (100 mM, pH 6.5), 2.5 mM GSH, and different concentrations of CDNB (typically 14–1000 μM) in the absence and presence of inhibitors (DM96, DM151, DM109, DMC, 0–50 μM). Initial velocities for the hGSTP1-1-catalyzed reaction with GSH as a variable substrate were determined in reaction mixtures (1 mL total volume) (25 °C) containing potassium phosphate buffer (100 mM, pH 6.5), 1 mM CDNB, and different concentrations of GSH (typically 37.5–3750 μΜ) in the absence and presence of inhibitors (DM96, DM151, DM109, Curcumin II, 0–50 μM).

[5] = system: native GST extracted from DU-145 cells; experiment: Inhibition of native GST activity in DU-145 cell lysate; format: biochemical, human; settings: inhibitor at its IC50 for recombinant hGSTP1-1, 25 °C
Procedure: DU-145 cells were trypsinized, transferred to a Falcon tube, and centrifuged at 1500× g for 10 min. Subsequently, DMEM was removed and the cell pellet was resuspended in 1 mL of potassium phosphate buffer. The cells were lysed by sonication, the suspension was centrifuged at 13,000× g for 5 min, and the supernatant was collected.

[6] = Homo sapiens, DU-145, 48 h, MTT, 48 h incubation
[7] = variable substrate CDNB, 2.5 mM GSH
[8] = variable substrate GSH, 1 mM CDNB

T1 sequence (P09211 2-210 limits assumed): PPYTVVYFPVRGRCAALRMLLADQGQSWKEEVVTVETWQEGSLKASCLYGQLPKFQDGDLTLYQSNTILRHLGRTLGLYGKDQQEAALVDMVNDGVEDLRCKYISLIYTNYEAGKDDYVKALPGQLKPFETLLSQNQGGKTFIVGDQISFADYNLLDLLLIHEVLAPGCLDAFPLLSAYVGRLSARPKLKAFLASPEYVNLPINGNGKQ

Compound | inhibition at 100 µM (hGSTP1-1 [1]) [%] | IC50 (hGSTP1-1 [1]) [µM] | Enzyme Inhibition (%) (hGSTP1-1 [1]; 100 µM) | Experimental Binding Free Energy ΔGexp (hGSTP1-1 [4]; variable substrate CDNB) | Experimental Binding Free Energy ΔGexp (hGSTP1-1 [4]; variable substrate GSH) | Ki (hGSTP1-1 [4]; variable substrate CDNB) [µM] | Ki (hGSTP1-1 [4]; variable substrate GSH) [µM] | other results
2,6-bis(3,4-dihydroxybenzylidene)cyclohexanone [DM57] | – | – | – | – | – | – | – | Enzyme Inhibition (%) (hGSTP1-1 [1]): 16.75 ± 3.61%
2,6-dibenzylidenecyclohexanone [DM15] | – | – | – | – | – | – | – | Enzyme Inhibition (%) (hGSTP1-1 [1]): 66.23 ± 2.57%
COc1cc(/C=C/C(=O)CC(=O)/C=C/c2ccc(O)c(OC)c2)ccc1O [Curcumin] | – | – | – | – | – | – | – | Mode of inhibition of hGSTP1-1 (hGSTP1-1 [2]): irreversible inhibitor
COc1ccc(/C=C2\CCC/C(=C\c3ccc(OC)cc3)C2=O)cc1 [DM46, 2,6-bid(4-methoxybenzylidene)cyclohexanone] | 8.5 ± 2.13 | – | – | – | – | – | – | –
O=C1/C(=C/c2ccc(F)cc2)CCC/C1=C\c1ccc(F)cc1 [DM62, (2E,6E)-2,6-bis(4-fluorobenzylidene)cyclohexanone] | 8.4 ± 0.36 | – | – | – | – | – | – | Effect on CD spectrum / conformation of the enzyme (hGSTP1-1 [3]): does not cause the conformational changes observed with DM96
COc1ccc(/C=C/C(=O)/C=C/c2ccc(OC)c(OC)c2)cc1OC [DM95, (1E,4E)-1,5-bis(3,4-dimethoxyphenyl)penta-1,4-dien-3-one] | 44.2 ± 3.06 | – | – | – | – | – | – | –
O=C1C(=Cc2ccc(O)c(O)c2)CCCC1=Cc1ccc(O)c(O)c1 [DM151, 2,6-bis(3,4-dihydroxybenzylidene)cyclohexanone] | – | 11.2 ± 1.03 | 88.18 ± 3.65 | ΔGexp = −7.12 kcal/mol | ΔGexp = −7.43 kcal/mol | 9.55 | 5.79 | Enzyme Inhibition (%) [5]: did not show any inhibition at all; also recorded: No inhibition was observed; IC50 (DU-145 cells; [6]): 46.1 ± 3.68 µM; IC50 (DU-145 cells; MTT, 48 h incubation): 44.6 ± 1.08 µM; Type of Inhibition (hGSTP1-1 [4]; [7]): Purely non-competitive; Type of Inhibition (hGSTP1-1 [4]; [8]): Purely non-competitive
COc1cc(/C=C/C(O)=C/C(=O)/C=C/c2ccc(O)cc2)ccc1O [DMC, Demethoxycurcumin] | – | 37.7 ± 1.02 | 94.56 ± 0.25 | -7.66 kcal/mol | -5.91 kcal/mol | 3.99 | 68 | IC50 (DU-145 cells; Homo sapiens, DU-145, 48 h): 48.5 ± 1.09 µM; Experimental Binding Free Energy ΔG′exp (hGSTP1-1 [4]; variable substrate CDNB): -7.98 kcal/mol; Experimental Binding Free Energy ΔG′exp (hGSTP1-1 [4]; variable substrate GSH): -6.07 kcal/mol; Type of Inhibition (hGSTP1-1 [4]; variable substrate CDNB, 2.5 mM GSH, listed as Curcumin II): Partially mixed; Inhibition Constant Ki΄ (hGSTP1-1 [4]; variable substrate CDNB): 2.36 ± 1.37 μΜ; Type of Inhibition (hGSTP1-1 [4]; variable substrate GSH, 1 mM CDNB, listed as Curcumin II): Partially mixed; Inhibition Constant Ki΄ (hGSTP1-1 [4]; variable substrate GSH): 52.83 ± 12.25 μΜ

The next lines start with results.

inhibition at 100 µM (hGSTP1-1 [1]) [%] | Compound | IC50 (hGSTP1-1 [1]) [µM] | Enzyme Inhibition (%) (hGSTP1-1 [1]; 100 µM) | Experimental Binding Free Energy ΔGexp (hGSTP1-1 [4]; variable substrate CDNB) | Experimental Binding Free Energy ΔGexp (hGSTP1-1 [4]; variable substrate GSH) | Ki (hGSTP1-1 [4]; variable substrate CDNB) [µM] | Ki (hGSTP1-1 [4]; variable substrate GSH) [µM] | other results
~95 | O=C(C=Cc1ccc(O)cc1)C=Cc1ccc(O)cc1 [DM96, 1,5-bis(4-hydroxyphenyl)penta-1,4-dien-3-one] | 5.45 ± 1.08 | 86.99 ± 1.88 | -7.71 kcal/mol | -7.71 kcal/mol | 3.67 | 3.69 | IC50 (DU-145 cells; [6]): 8.6 ± 1.07 µM; Effect on CD spectrum / conformation of the enzyme (hGSTP1-1 [3]): causes a great change in the CD spectrum; Experimental Binding Free Energy ΔG′exp (hGSTP1-1 [4]; variable substrate CDNB): -7.52 kcal/mol; Experimental Binding Free Energy ΔG′exp (hGSTP1-1 [4]; variable substrate GSH): -8.29 kcal/mol; Type of Inhibition (hGSTP1-1 [4]; [7]): mixed-type inhibitor; also recorded: Purely mixed; Inhibition Constant Ki΄ (hGSTP1-1 [4]; variable substrate CDNB): 4.97 ± 2.86 μΜ; Type of Inhibition (hGSTP1-1 [4]; [8]): partially mixed; also recorded: Partial mixed; Inhibition Constant Ki΄ (hGSTP1-1 [4]; variable substrate GSH): 1.45 ± 0.43 μΜ
40 ± 1.84 | COc1cc(C=C2CCCC(=Cc3ccc(O)c(OC)c3)C2=O)ccc1O [DM100, 2,6-bis(3-methoxy-4-hydroxy-benzylidene)cyclohexanone] | – | – | – | – | – | – | –
~95 | O=C(/C=C/c1ccc(F)cc1)/C=C/c1ccc(F)cc1 [DM109, (1E,4E)-1,5-bis(4-fluorophenyl)penta-1,4-dien-3-one] | 19.5 ± 1.04 | 79.06 ± 2.54 | ΔGexp = −6.66 kcal/mol | ΔGexp = −5.96 kcal/mol | 20.1 | 35.1 | IC50 (DU-145 cells; [6]): 44.6 ± 1.08 µM; IC50 (DU-145 cells; MTT, 48 h incubation): 46.1 ± 3.68 µM; Type of Inhibition (hGSTP1-1 [4]; [7]): Purely non-competitive; Type of Inhibition (hGSTP1-1 [4]; [8]): Purely non-competitive
54.8 ± 0.52 | O=C(/C=C/c1ccc(O)c(O)c1)/C=C/c1ccc(O)c(O)c1 [DM148, (1E,4E)-1,5-bis(3,4-dihydroxyphenyl)penta-1,4-dien-3-one] | – | – | – | – | – | – | –
